Earlier results in US20030069213A1, “ORAL PREPARATION” (priority 1997, published 2003).
Converted amounts (≈) assume the structure as drawn. Where a name gives a salt, the structure may show the parent alone. Read-outs that look alike come from different tables or passages of the source. One block for each molecule: values may come before it.

Tests used:
[1] = dissolved in water
[2] = not given; remark: listed apart in the source

SMILES: CN/C(=N/CCSCc1nc[nH]c1C)NC#N [cimetidine]
- pKa: 7.1
- solubility in water ([2]; pH 6.5, 25° C.): 30 mg/mL (≈ 119 mM)
- solubility in water ([2]; pH 8.3, 25° C.): 5.3 mg/mL (≈ 21 mM)

SMILES: Clc1ccccc1CN1CCc2sccc2C1 [ticlopidine hydrochloride]
- pKa: 6.93

SMILES: NC[C@H]1CC[C@H](C(=O)Oc2ccc(CCC(=O)O)cc2)CC1 [cetraxate hydrochloride]
- pKa (amino group): 10.5
- pKa (carboxyl group): 4.5
- solubility in water ([2]; pH 2.8, 22° C.): 27 mg/mL
- solubility in water ([2]; pH 5.9, 22° C.): 0.4 mg/mL

SMILES: NC[C@H]1CC[C@H](C(=O)O)CC1 [tranexamic acid]
- pKa (amino group): 10.65
- pKa (carboxyl group): 4.33

The next lines start with the values.

- heat of dissolution [1]: -24.1 cal/g
- heat of dissolution ([1]; listed as D-Sorbitol): (−24.1) cal/g
SMILES: OC[C@@H](O)[C@@H](O)[C@H](O)[C@@H](O)CO [sorbitol]

- heat of dissolution [1]: -5.5 cal/g
- heat of dissolution ([1]; listed as Maltitol): Maltitol (−5.5) cal/g
SMILES: OC[C@@H](O)[C@@H](O[C@H]1O[C@H](CO)[C@@H](O)[C@H](O)[C@H]1O)[C@H](O)[C@@H](O)CO [maltitol]

- heat of dissolution [1]: -4.5 cal/g
- heat of dissolution ([1]; listed as Sucrose): Sucrose (−4.5) cal/g
SMILES: OC[C@H]1O[C@@](CO)(O[C@H]2O[C@H](CO)[C@@H](O)[C@H](O)[C@H]2O)[C@@H](O)[C@@H]1O [sucrose]

- heat of dissolution [1]: -28.9 cal/g
- heat of dissolution ([1]; listed as D-Mannitol): (−28.9) cal/g
SMILES: OC[C@@H](O)[C@@H](O)[C@H](O)[C@H](O)CO [mannitol]

- heat of dissolution [1]: -42.9 cal/g
SMILES: OC[C@@H](O)[C@@H](O)CO [erythritol]

- heat of dissolution [1]: -35 cal/g
- heat of dissolution ([1]; listed as Xylitol): Xylitol (−35) cal/g
SMILES: OC[C@@H](O)[C@H](O)[C@@H](O)CO [xylitol]
